# Source: article PMC10999558, “Analyzing resistome in soil and Human gut: a study on the characterization and risk evaluation of antimicrobial peptide resistance” (Frontiers in Microbiology, 2024)
# Columns and labels:
# Type in all cases: cell-based, Escherichia coli
# Conditions in all cases: MHB, 37°C, 24 h, triplicate
# [1] = system: E. coli BL21(DE3); test: MIC, broth microdilution, retransformed E. coli BL21(DE3)
# Experimental: (§1) Escherichia coli DH5α, E. coli BL21(DE3), and E. coli JM109 were utilized in this study.
# (§2) The MICs were determined using the broth microdilution method in 96-well microtiter plates ([Wiegand et al., 2008]). In brief, a 1:100 dilution of the mid-exponential phase bacterial culture (OD600 = 0.5), consisting of 5 μL (1 × 10^5 CFU/mL), was introduced into polypropylene 96-well plates. These plates contained a two-fold dilution series of AMP in a total volume of 100 μL MHB per well. The incubation of the plates occurred at 37°C in a humidity chamber. The MIC was identified as the lowest concentration that hindered visible bacterial growth after 24 h of incubation. Each experiment was conducted in triplicate.
# (§3) Before washing down the colonies, we randomly selected two clones from each plate containing distinct AMP. Colony PCRs were conducted using M13 primer pairs to validate the presence of inserts and determine their sizes. The selected colonies were then subjected to sequencing. The specific details are provided in Supplementary Table S2. Following that, plasmids were isolated using the Plasmid Midiprep Kit (Zomanbio, ZP103) following the manufacturer’s guidelines. After the plasmids were successfully reintroduced into E. coli JM109 and E. coli BL 21(DE3), the MICs of the transformed strains against the AMP used for selection were tested. This testing process was carried out in triplicate.
# (§4) Following validation, the colonies displaying resistance underwent additional testing via MIC assessments for the remaining four AMPs that were not employed during the selection process. This experimental procedure was carried out in triplicate.
# [2] = system: E. coli DH5α; test: MIC, broth microdilution, E. coli DH5α carrying pUC118 or resistance-conferring plasmids
# Experimental: as §1, §2, §4
# [3] = system: E. coli JM109; test: MIC, broth microdilution, retransformed E. coli JM109
# Experimental: as §1, §2, §3, §4
substance,measurement,setting,value
Colistin [CST],MIC,"[1]; colony pUC118-BL21(DE3) (control, no insert)",1 µg/mL
same,MIC,[1]; colony pUC118-FCST1-BL21(DE3) (feces insert 1 selected against colistin),2 µg/mL
same,MIC,[1]; colony pUC118-FCST2-BL21(DE3) (feces insert 2 selected against colistin),2 µg/mL
same,MIC,[1]; colony pUC118-FGQ1-BL21(DE3) (feces insert 1 selected against melittin),2 µg/mL
same,MIC,[1]; colony pUC118-FGQ2- BL21(DE3) (feces insert 2 selected against melittin),2 µg/mL
same,MIC,[1]; colony pUC118-FIB1-BL21(DE3) (feces insert 1 selected against iseganan),1 µg/mL
same,MIC,[1]; colony pUC118-FIB2-BL21(DE3) (feces insert 2 selected against iseganan),2 µg/mL
same,MIC,[1]; colony pUC118-FPB1-BL21(DE3) (feces insert 1 selected against polymyxin B),4 µg/mL
same,MIC,[1]; colony pUC118-FPB2-BL21(DE3) (feces insert 2 selected against polymyxin B),2 µg/mL
same,MIC,[1]; colony pUC118-FSA1-BL21(DE3) (feces insert 1 selected against cathelicidin-DM),2 µg/mL
same,MIC,[1]; colony pUC118-FSA2-BL21(DE3) (feces insert 2 selected against cathelicidin-DM),2 µg/mL
same,MIC,[1]; colony pUC118-SCST1-BL21(DE3) (soil insert 1 selected against colistin),2 µg/mL
same,MIC,[1]; colony pUC118-SCST2-BL21(DE3) (soil insert 2 selected against colistin),2 µg/mL
same,MIC,[1]; colony pUC118-SGQ1-BL21(DE3) (soil insert 1 selected against melittin),1 µg/mL
same,MIC,[1]; colony pUC118-SGQ2-BL21(DE3) (soil insert 2 selected against melittin),1 µg/mL
same,MIC,[1]; colony pUC118-SIB1-BL21(DE3) (soil insert 1 selected against iseganan),1 µg/mL
same,MIC,[1]; colony pUC118-SIB2-BL21(DE3) (soil insert 2 selected against iseganan),1 µg/mL
same,MIC,[1]; colony pUC118-SPB1-BL21(DE3) (soil insert 1 selected against polymyxin B),1 µg/mL
same,MIC,[1]; colony pUC118-SPB2-BL21(DE3) (soil insert 2 selected against polymyxin B),2 µg/mL
same,MIC,[1]; colony pUC118-SSA1-BL21(DE3) (soil insert 1 selected against cathelicidin-DM),2 µg/mL
same,MIC,[1]; colony pUC118-SSA2-BL21(DE3) (soil insert 2 selected against cathelicidin-DM),2 µg/mL
same,MIC,[2]; E. coli DH5α containing pUC118 plasmids,0.25 µg/mL
same,MIC,"[2]; colony pUC118-DH5α (control, no insert)",0.25 µg/mL
same,MIC,[2]; colony pUC118-FCST1-DH5α (feces insert 1 selected against colistin),0.5 µg/mL
same,MIC,[2]; colony pUC118-FCST2-DH5α (feces insert 2 selected against colistin),0.5 µg/mL
same,MIC,[2]; colony pUC118-FGQ1-DH5α (feces insert 1 selected against melittin),0.5 µg/mL
same,MIC,[2]; colony pUC118-FGQ2-DH5α (feces insert 2 selected against melittin),0.5 µg/mL
same,MIC,[2]; colony pUC118-FIB1-DH5α (feces insert 1 selected against iseganan),0.25 µg/mL
same,MIC,[2]; colony pUC118-FIB2-DH5α (feces insert 2 selected against iseganan),1 µg/mL
same,MIC,[2]; colony pUC118-FPB1-DH5α (feces insert 1 selected against polymyxin B),2 µg/mL
same,MIC,[2]; colony pUC118-FPB2-DH5α (feces insert 2 selected against polymyxin B),1 µg/mL
same,MIC,[2]; colony pUC118-FSA1-DH5α (feces insert 1 selected against cathelicidin-DM),0.5 µg/mL
same,MIC,[2]; colony pUC118-FSA2-DH5α (feces insert 2 selected against cathelicidin-DM),0.5 µg/mL
same,MIC,[2]; colony pUC118-SCST1-DH5α (soil insert 1 selected against colistin),0.5 µg/mL
same,MIC,[2]; colony pUC118-SCST2-DH5α (soil insert 2 selected against colistin),1 µg/mL
same,MIC,[2]; colony pUC118-SGQ1-DH5α (soil insert 1 selected against melittin),0.25 µg/mL
same,MIC,[2]; colony pUC118-SGQ2-DH5α (soil insert 2 selected against melittin),0.25 µg/mL
same,MIC,[2]; colony pUC118-SIB1-DH5α (soil insert 1 selected against iseganan),0.25 µg/mL
same,MIC,[2]; colony pUC118-SIB2-DH5α (soil insert 2 selected against iseganan),0.25 µg/mL
same,MIC,[2]; colony pUC118-SPB1-DH5α (soil insert 1 selected against polymyxin B),0.25 µg/mL
same,MIC,[2]; colony pUC118-SPB2-DH5α (soil insert 2 selected against polymyxin B),0.5 µg/mL
same,MIC,[2]; colony pUC118-SSA1-DH5α (soil insert 1 selected against cathelicidin-DM),0.5 µg/mL
same,MIC,[2]; colony pUC118-SSA2-DH5α (soil insert 2 selected against cathelicidin-DM),1 µg/mL
same,MIC,[3]; colony pUC118-FCST1-JM109 (feces insert 1 selected against colistin),0.5 µg/mL
same,MIC,[3]; colony pUC118-FCST2-JM109 (feces insert 2 selected against colistin),1 µg/mL
same,MIC,[3]; colony pUC118-FGQ1-JM109 (feces insert 1 selected against melittin),0.5 µg/mL
same,MIC,[3]; colony pUC118-FGQ2-JM109 (feces insert 2 selected against melittin),0.5 µg/mL
same,MIC,[3]; colony pUC118-FIB1-JM109 (feces insert 1 selected against iseganan),0.25 µg/mL
same,MIC,[3]; colony pUC118-FIB2-JM109 (feces insert 2 selected against iseganan),0.5 µg/mL
same,MIC,[3]; colony pUC118-FPB1-JM109 (feces insert 1 selected against polymyxin B),1 µg/mL
same,MIC,[3]; colony pUC118-FPB2-JM109 (feces insert 2 selected against polymyxin B),0.5 µg/mL
same,MIC,[3]; colony pUC118-FSA1-JM109 (feces insert 1 selected against cathelicidin-DM),2 µg/mL
same,MIC,[3]; colony pUC118-FSA2-JM109 (feces insert 2 selected against cathelicidin-DM),0.5 µg/mL
same,MIC,"[3]; colony pUC118-JM109 (control, no insert)",0.25 µg/mL
same,MIC,[3]; colony pUC118-SCST1-JM109 (soil insert 1 selected against colistin),0.5 µg/mL
same,MIC,[3]; colony pUC118-SCST2-JM109 (soil insert 2 selected against colistin),0.5 µg/mL
same,MIC,[3]; colony pUC118-SGQ1-JM109 (soil insert 1 selected against melittin),0.25 µg/mL
same,MIC,[3]; colony pUC118-SGQ2-JM109 (soil insert 2 selected against melittin),0.25 µg/mL
same,MIC,[3]; colony pUC118-SIB1-JM109 (soil insert 1 selected against iseganan),0.25 µg/mL
same,MIC,[3]; colony pUC118-SIB2-JM109 (soil insert 2 selected against iseganan),0.25 µg/mL
same,MIC,[3]; colony pUC118-SPB1-JM109 (soil insert 1 selected against polymyxin B),0.25 µg/mL
same,MIC,[3]; colony pUC118-SPB2-JM109 (soil insert 2 selected against polymyxin B),0.5 µg/mL
same,MIC,[3]; colony pUC118-SSA1-JM109 (soil insert 1 selected against cathelicidin-DM),0.5 µg/mL
same,MIC,[3]; colony pUC118-SSA2-JM109 (soil insert 2 selected against cathelicidin-DM),0.25 µg/mL
